Results from the supplement of paper PMC9549728.
Where a name gives a salt, the structure may show the parent alone.

test system: murine gastric organoid WNT-activated (Apc fl/fl; Tp53 R172H); experiment: IC50 (viability, PrestoBlue) (log10 nM); conditions: exposure time: 72 h
Procedure: (§1)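 Murine gastric corpus organoids (normal uninduced; RAS-activated Kras G12D/Tp53 R172H; diffuse Cdh1/Apc loss; WNT-activated Apc loss/Tp53 R172H) were seeded in Matrigel into pre-spotted 384-well plates. The plates held a 196-compound library at 6.7 nM to 25,004 nM (9 doses) and were incubated 72 h. Viability was read by PrestoBlue fluorescence (560/590 nm). IC50 came from non-linear regression (Prism), reported as log10 IC50 in nM, mean of 3 passages x 2 wells.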

Structure (SMILES)	IC50 (log10 nM)
C#Cc1cccc(Nc2ncnc3cc(OCCOC)c(OCCOC)cc23)c1 [Erlotinib]	2.67
Cc1cc(C)c(/C=C2\C(=O)Nc3ccccc32)[nH]1 [SU 5416]	3.77
COc1cc(Nc2c(C#N)cnc3cc(OCCCN4CCN(C)CC4)c(OC)cc23)c(Cl)cc1Cl [Bosutinib]	3.01
O=C1NC(=O)[C@@H](c2cn3c4c(cccc24)CCC3)[C@@H]1c1c[nH]c2ccccc12 [Tivantinib]	2.79
COc1cc2c(cc1OC)CN(CCc1ccc(NC(=O)c3cc(OC)c(OC)cc3NC(=O)c3cnc4ccccc4c3)cc1)CC2 [Tariquidar]	3.76
O=C(O)CCCc1ccc(N(CCCl)CCCl)cc1 [Chlorambucil]	3.92
CC1=C(/C=C/C(C)=C/C=C/C(C)=C/C(=O)O)C(C)(C)CCC1 [Retinoic acid]	3.82
Cc1ccc(Nc2nccc(N(C)c3ccc4c(C)n(C)nc4c3)n2)cc1S(N)(=O)=O [Pazopanib]	> 4.4
COc1ccc(/C=C\c2cc(OC)c(OC)c(OC)c2)cc1OP(=O)(O)O [Fosbretabulin disodium]	1.85
Oc1ncc(N(CCCl)CCCl)c(O)n1 [Uramustine]	3.68
CN(C)c1ccccc1CN1CCCN(Cc2ccccc2N(C)C)C1c1ccncc1 [GANT-61]	2.6
CC(=O)[C@]1(O)Cc2c(O)c3c(c(O)c2[C@@H](O[C@H]2C[C@H](N)[C@H](O)[C@H](C)O2)C1)C(=O)c1ccccc1C3=O [Idarubicin hydrochloride]	0.851
O=C(/C=C/c1cccc(S(=O)(=O)Nc2ccccc2)c1)NO [Belinostat]	3.27
COc1cccc2c1C(=O)c1c(O)c3c(c(O)c1C2=O)C[C@@](O)(C(C)=O)C[C@@H]3O[C@H]1C[C@H](N)[C@H](O)[C@H](C)O1 [Daunorubicin hydrochloride]	1.73
Cn1cnc2c(F)c(Nc3ccc(Br)cc3F)c(C(=O)NOCCO)cc21 [Binimetinib]	2.96
Cc1[nH]c2ccccc2c1CCNCc1ccc(/C=C/C(=O)NO)cc1 [Panobinostat]	3.02
CC(C)n1nc(-c2ccc3oc(N)nc3c2)c2c(N)ncnc21 [INK 128]	> 4.4
C=CC(=O)Nc1cc2c(Nc3ccc(F)c(Cl)c3)ncnc2cc1OCCCN1CCOCC1 [Canertinib]	2.17

test system: murine normal gastric organoid; experiment: IC50 (viability, PrestoBlue) (log10 nM); conditions: exposure time: 72 h
Procedure: as §1

Structure (SMILES)	IC50 (log10 nM)
C#Cc1cccc(Nc2ncnc3cc(OCCOC)c(OCCOC)cc23)c1 [Erlotinib]	2.58
Cc1cc(C)c(/C=C2\C(=O)Nc3ccccc32)[nH]1 [SU 5416]	4.03
COc1cc(Nc2c(C#N)cnc3cc(OCCCN4CCN(C)CC4)c(OC)cc23)c(Cl)cc1Cl [Bosutinib]	3.96
O=C1NC(=O)[C@@H](c2cn3c4c(cccc24)CCC3)[C@@H]1c1c[nH]c2ccccc12 [Tivantinib]	2.87
COc1cc2c(cc1OC)CN(CCc1ccc(NC(=O)c3cc(OC)c(OC)cc3NC(=O)c3cnc4ccccc4c3)cc1)CC2 [Tariquidar]	4.26
O=C(O)CCCc1ccc(N(CCCl)CCCl)cc1 [Chlorambucil]	3.32
CC1=C(/C=C/C(C)=C/C=C/C(C)=C/C(=O)O)C(C)(C)CCC1 [Retinoic acid]	> 4.4
Cc1ccc(Nc2nccc(N(C)c3ccc4c(C)n(C)nc4c3)n2)cc1S(N)(=O)=O [Pazopanib]	4.21
COc1ccc(/C=C\c2cc(OC)c(OC)c(OC)c2)cc1OP(=O)(O)O [Fosbretabulin disodium]	< 0.826
Oc1ncc(N(CCCl)CCCl)c(O)n1 [Uramustine]	3.3
CN(C)c1ccccc1CN1CCCN(Cc2ccccc2N(C)C)C1c1ccncc1 [GANT-61]	1.27
CC(=O)[C@]1(O)Cc2c(O)c3c(c(O)c2[C@@H](O[C@H]2C[C@H](N)[C@H](O)[C@H](C)O2)C1)C(=O)c1ccccc1C3=O [Idarubicin hydrochloride]	1.1
O=C(/C=C/c1cccc(S(=O)(=O)Nc2ccccc2)c1)NO [Belinostat]	3.2
COc1cccc2c1C(=O)c1c(O)c3c(c(O)c1C2=O)C[C@@](O)(C(C)=O)C[C@@H]3O[C@H]1C[C@H](N)[C@H](O)[C@H](C)O1 [Daunorubicin hydrochloride]	1.56
Cn1cnc2c(F)c(Nc3ccc(Br)cc3F)c(C(=O)NOCCO)cc21 [Binimetinib]	2.09
Cc1[nH]c2ccccc2c1CCNCc1ccc(/C=C/C(=O)NO)cc1 [Panobinostat]	3.17
CC(C)n1nc(-c2ccc3oc(N)nc3c2)c2c(N)ncnc21 [INK 128]	1.21
C=CC(=O)Nc1cc2c(Nc3ccc(F)c(Cl)c3)ncnc2cc1OCCCN1CCOCC1 [Canertinib]	2.35

test system: murine gastric organoid RAS-activated (Kras G12D; Tp53 R172H); experiment: IC50 (viability, PrestoBlue) (log10 nM); conditions: exposure time: 72 h
Procedure: as §1

Structure (SMILES)	IC50 (log10 nM)
C#Cc1cccc(Nc2ncnc3cc(OCCOC)c(OCCOC)cc23)c1 [Erlotinib]	> 4.4
Cc1cc(C)c(/C=C2\C(=O)Nc3ccccc32)[nH]1 [SU 5416]	4.36
COc1cc(Nc2c(C#N)cnc3cc(OCCCN4CCN(C)CC4)c(OC)cc23)c(Cl)cc1Cl [Bosutinib]	3.57
O=C1NC(=O)[C@@H](c2cn3c4c(cccc24)CCC3)[C@@H]1c1c[nH]c2ccccc12 [Tivantinib]	2.4
COc1cc2c(cc1OC)CN(CCc1ccc(NC(=O)c3cc(OC)c(OC)cc3NC(=O)c3cnc4ccccc4c3)cc1)CC2 [Tariquidar]	3.73
O=C(O)CCCc1ccc(N(CCCl)CCCl)cc1 [Chlorambucil]	2.93
CC1=C(/C=C/C(C)=C/C=C/C(C)=C/C(=O)O)C(C)(C)CCC1 [Retinoic acid]	0.928
Cc1ccc(Nc2nccc(N(C)c3ccc4c(C)n(C)nc4c3)n2)cc1S(N)(=O)=O [Pazopanib]	> 4.4
COc1ccc(/C=C\c2cc(OC)c(OC)c(OC)c2)cc1OP(=O)(O)O [Fosbretabulin disodium]	2.23
Oc1ncc(N(CCCl)CCCl)c(O)n1 [Uramustine]	3.2
CN(C)c1ccccc1CN1CCCN(Cc2ccccc2N(C)C)C1c1ccncc1 [GANT-61]	1.22
CC(=O)[C@]1(O)Cc2c(O)c3c(c(O)c2[C@@H](O[C@H]2C[C@H](N)[C@H](O)[C@H](C)O2)C1)C(=O)c1ccccc1C3=O [Idarubicin hydrochloride]	< 0.826
O=C(/C=C/c1cccc(S(=O)(=O)Nc2ccccc2)c1)NO [Belinostat]	2.61
COc1cccc2c1C(=O)c1c(O)c3c(c(O)c1C2=O)C[C@@](O)(C(C)=O)C[C@@H]3O[C@H]1C[C@H](N)[C@H](O)[C@H](C)O1 [Daunorubicin hydrochloride]	1.6
Cn1cnc2c(F)c(Nc3ccc(Br)cc3F)c(C(=O)NOCCO)cc21 [Binimetinib]	2.28
Cc1[nH]c2ccccc2c1CCNCc1ccc(/C=C/C(=O)NO)cc1 [Panobinostat]	1.81
CC(C)n1nc(-c2ccc3oc(N)nc3c2)c2c(N)ncnc21 [INK 128]	1.45
C=CC(=O)Nc1cc2c(Nc3ccc(F)c(Cl)c3)ncnc2cc1OCCCN1CCOCC1 [Canertinib]	3.85

test system: murine gastric organoid diffuse (Cdh1 fl/fl; Apc fl/fl); experiment: IC50 (viability, PrestoBlue) (log10 nM); conditions: exposure time: 72 h
Procedure: as §1

Structure (SMILES)	IC50 (log10 nM)
C#Cc1cccc(Nc2ncnc3cc(OCCOC)c(OCCOC)cc23)c1 [Erlotinib]	2.97
Cc1cc(C)c(/C=C2\C(=O)Nc3ccccc32)[nH]1 [SU 5416]	4.33
COc1cc(Nc2c(C#N)cnc3cc(OCCCN4CCN(C)CC4)c(OC)cc23)c(Cl)cc1Cl [Bosutinib]	3.58
O=C1NC(=O)[C@@H](c2cn3c4c(cccc24)CCC3)[C@@H]1c1c[nH]c2ccccc12 [Tivantinib]	3.1
COc1cc2c(cc1OC)CN(CCc1ccc(NC(=O)c3cc(OC)c(OC)cc3NC(=O)c3cnc4ccccc4c3)cc1)CC2 [Tariquidar]	3.95
O=C(O)CCCc1ccc(N(CCCl)CCCl)cc1 [Chlorambucil]	2.48
CC1=C(/C=C/C(C)=C/C=C/C(C)=C/C(=O)O)C(C)(C)CCC1 [Retinoic acid]	> 4.4
Cc1ccc(Nc2nccc(N(C)c3ccc4c(C)n(C)nc4c3)n2)cc1S(N)(=O)=O [Pazopanib]	1.42
COc1ccc(/C=C\c2cc(OC)c(OC)c(OC)c2)cc1OP(=O)(O)O [Fosbretabulin disodium]	2.47
Oc1ncc(N(CCCl)CCCl)c(O)n1 [Uramustine]	3.69
CN(C)c1ccccc1CN1CCCN(Cc2ccccc2N(C)C)C1c1ccncc1 [GANT-61]	2.53
CC(=O)[C@]1(O)Cc2c(O)c3c(c(O)c2[C@@H](O[C@H]2C[C@H](N)[C@H](O)[C@H](C)O2)C1)C(=O)c1ccccc1C3=O [Idarubicin hydrochloride]	1.41
O=C(/C=C/c1cccc(S(=O)(=O)Nc2ccccc2)c1)NO [Belinostat]	3.29
COc1cccc2c1C(=O)c1c(O)c3c(c(O)c1C2=O)C[C@@](O)(C(C)=O)C[C@@H]3O[C@H]1C[C@H](N)[C@H](O)[C@H](C)O1 [Daunorubicin hydrochloride]	1.77
Cn1cnc2c(F)c(Nc3ccc(Br)cc3F)c(C(=O)NOCCO)cc21 [Binimetinib]	3.03
Cc1[nH]c2ccccc2c1CCNCc1ccc(/C=C/C(=O)NO)cc1 [Panobinostat]	2.82
CC(C)n1nc(-c2ccc3oc(N)nc3c2)c2c(N)ncnc21 [INK 128]	1.42
C=CC(=O)Nc1cc2c(Nc3ccc(F)c(Cl)c3)ncnc2cc1OCCCN1CCOCC1 [Canertinib]	2.6
